# Experimental data as given in patent US5478807A, “Use of relaxin in the treatment of bradycardia” (Genentech, Inc., priority 1992, dated 1995).
# Where two headings read alike, the source gives them in different places.
# Legend:
# [1] = test system: relaxin receptors in the rat heart; experiment: Effect of steroid hormones on relaxin receptors in the rat heart; assay type: in vivo; details: steroid treatment 10 μg s.c.; sacrificed 7 days later
# Experimental: For hormonal control experiments, 10-11-week-old female rats were ovariectomized for two weeks and then injected s.c. with 10 μg estradiol cyclopentyl propionate in a […] vehicle or with vehicle alone. Likewise, 10-11-week-old male rats were castrated for 2 weeks and were injected with either 10 μg estradiol cyclopentyl propionate, 10 μg testosterone, or vehicle alone. The rats were sacrificed 7 days later by asphyxiation with CO2. The relevant tissues were removed rapidly and frozen in powdered dry ice immediately.
# The frozen tissues were sectioned to 16 μm thickness using a Reichert-Jung Model 2800 Frigocut cryostat (Cambridge Instruments). Tissue sections were fixed onto gelatin/chromium potassium sulfate treated microscope slides by warming, and immediately refrozen and stored at -80° C. overnight or longer.
# For binding of ^32 P-relaxin to the tissue sections, frozen slides were prewashed with binding buffer (Hank's balanced salt solution supplemented with 20 mMHEPES, pH 7.2, 1 mg/ml BSA, 0.1 mM PMSF, and 1 μg/ml leupeptin) at 4° C. for 1.5-2 hours. The tissue sections were then covered with 600-700 μl of 100 pM ^32 P-relaxin with or without excess unlabeled relaxin and other competing agents as specificity control, and incubated at 4° C. for one hour. The slides were washed 3 times for 15-30 minutes each, with binding buffer. […]
# rat isolated heart = experiment: Chronotropy and inotropy in Langendorff rat isolated heart
# Experimental: Male Sprague-Dawley rats weighing 300-350 g (Charles River, Portage, Ind., USA) were anesthetized with 60 mg/kg pentobarbital sodium (Fort Dodge Laboratories, Inc., Fort Dodge, Iowa, USA) intraperitoneally. Following thoracotomy, the hearts were removed and placed into 4° C. […] Any associated lung and thymic tissue were trimmed off and the ascending aorta cannulated. The heart was then perfused at 10 ml/min with Krebs-Henseleit solution at 37° C. The perfusion pressure was constantly monitored. A small incision was made in the left atrium and a water-filled balloon (Hugo Sachs Electronik, March-Hugstetten, Germany) connected to a pressure transducer (Gould Electronics, Valley View, Ohio, USA) was placed into the left ventricle for the measurement of left ventricular developed pressure (LVDP). From this pressure, recording heart rate was electronically derived on a Grass polygraph (Quincy, Mass., USA).
# In six experiments, after a 15-20 minutes stabilization period, the atria were removed. The heart rate was then allowed to stabilize at its new rate before the administration of relaxin. In three experiments, the atria were left intact.
# Relaxin was administered as 50 μl bolus injections into the perfusion fluid immediately prior to entering the heart. Cumulative dose-response curves were constructed using human recombinant H2 relaxin (Genentech, Inc. South San Francisco, Calif., USA). […] Serial dilutions of both drugs were made using 0.9% (w/v) saline solution.
# Statistical significance was determined by a two-tailed Student's unpaired t-test and P<0.005 was taken as significant.
# [2] = cited from earlier work
# [3] = obliterative peripheral arterial disease; cited from earlier work
# rat mesocaecum venules = details: local application; cited from earlier work
molecule,measurement,setting,value
C[C@]12CC[C@H]3[C@@H](CCC4=CC(=O)CC[C@@]43C)[C@@H]1CC[C@@H]2O [testosterone],effect on relaxin binding in the heart,[1],did not cause any changes in relaxin binding in the heart
"CNCC(O)c1ccc(O)c(O)c1.O=C(O)C(O)C(O)C(=O)O (centres unmarked) [adrenaline, Adrenaline bitartrate, reference compound]",transient increases in coronary perfusion pressure,rat isolated heart,5-10 mmHg
same,left ventricular developed pressure (LVDP),"rat isolated heart; intact preparations, 4.5 pMol, basal 83±4 mmHg",195±10 mmHg
same,duration of chronotropic effect,rat isolated heart; relaxin: single bolus administration of 830 pMol,short-lasting
estradiol cyclopentyl propionate [Estrogen],effect on relaxin binding in the heart,[1],had no effect on relaxin binding in the heart
porcine relaxin,blood pressure,"[2]; injection of up to 50 μg, anesthetized rats",did not affect blood pressure
same,arterial pressure,"[2]; intracerebroventricular injection, urethane anesthetized rat",increase arterial pressure
same,arterial pressure,"[2]; intravenous injection, urethane anesthetized rats",increases arterial pressure
same,heart rate,"[2]; intravenous or intracerebroventricular injection, urethane anesthetized rat",increase heart rate
same,healing of Raynaud's lesions,[3],beneficial in healing Raynaud's lesions
same,effect on venules and vasoconstriction,rat mesocaecum venules,dilate venules and antagonized the vasoconstrictive effects of norepinephrine and promethazine
